Values of other authors in patent US20250241296A1, “HIGH-LOAD AGRICULTURAL FORMULATIONS AND METHODS OF MAKING SAME” (priority 2022, published 2025).

What was measured:
[1] = footnote a: values from the Chemistry Dashboard of the US Environmental Protection Agency
[2] = footnote a: values from the Chemistry Dashboard of the US Environmental Protection Agency; remark: listed apart in the source

Compound	Density [1]	Solubility in Water [2]
Fc1ccc([C@]2(Cn3cncn3)O[C@H]2c2ccccc2Cl)cc1 (racemic) [Epoxiconazole]	1.42^a g/mL	
CO/C=C(/C(=O)OC)c1ccccc1Oc1cc(Oc2ccccc2C#N)ncn1 [Azoxystrobin]	1.34^a g/mL	6.01^a mg/L
COC(=O)Nc1nc2ccccc2[nH]1 [Carbendazim]	1.39^a g/mL	
CNC(=O)c1cc(Cl)cc(C)c1NC(=O)c1cc(Br)nn1-c1ncccc1Cl [Chlorantraniliprole]	1.65^a g/mL	
CNC(=O)c1cc(C#N)cc(C)c1NC(=O)c1cc(Br)nn1-c1ncccc1Cl [Cyantraniliprole]	1.65^a g/mL	
CC(C1CC1)C(O)(Cn1cncn1)c1ccc(Cl)cc1 (stereo not drawn) [Cyproconazole]	1.31^a g/mL	
O=[N+]([O-])c1cc(C(F)(F)F)c(Cl)c([N+](=O)[O-])c1Nc1ncc(C(F)(F)F)cc1Cl [Fluazinam]	1.80^a g/mL	
Cc1cc(C(F)(C(F)(F)F)C(F)(F)F)ccc1NC(=O)c1cccc(I)c1C(=O)NC(C)(C)CS(C)(=O)=O [Flubendiamide]	1.78^a g/mL	
N#Cc1c[nH]cc1-c1cccc2c1OC(F)(F)O2 [Fludioxinil]	1.54^a g/mL	
N#Cc1ccccc1NC(=O)c1snc(Cl)c1Cl [Isotianil]	1.56^a g/mL	
COCC(=O)N(c1c(C)cccc1C)[C@H](C)C(=O)OC [Metalaxyl-M]	1.09^a g/mL	
CNC(=O)/C(=N/OC)c1ccccc1Oc1ccccc1 [Metominostrobin]	1.13^a g/mL	
Cc1nn(C)c(F)c1C(=O)Nc1ccccc1C(C)CC(C)C (stereo not drawn) [Penflufen]	1.18^a g/mL	
CO/C=C(/C(=O)OC)c1ccccc1COc1cccc(C(F)(F)F)n1 [Picoxystrobin]	1.28^a g/mL	8.30^a mg/L
CC12CC1(C)C(=O)N(c1cc(Cl)cc(Cl)c1)C2=O (stereo not drawn) [Procymidone]	1.43^a g/mL	
CCCC1COC(Cn2cncn2)(c2ccc(Cl)cc2Cl)O1 (stereo not drawn) [Propiconazole]	1.39^a g/mL	
COC(=O)N(OC)c1ccccc1COc1ccn(-c2ccc(Cl)cc2)n1 [Pyraclostrobin]	1.34^a g/mL	
CC(c1ccc(C(F)(F)F)nc1)S(C)(=O)=NC#N (stereo not drawn) [Sulfoxaflor]	1.34^a g/mL	
CN1COCN(Cc2cnc(Cl)s2)/C1=N\[N+](=O)[O-] [Thiamethoxam]	1.76^a g/mL	
Abamectin	1.28^a g/mL	36.4^a mg/L
Spinetoram	1.18^a g/mL	162^a mg/L
Spinosad	1.20^a g/mL	295^a mg/L
